Test results taken from PMC6271274, “Synthesis, Leishmanicidal Activity and Theoretical Evaluations of a Series of Substituted bis-2-Hydroxy-1,4-Naphthoquinones” (Molecules, 2014).
Where “and” joins values, the source holds several entries; their conditions need not be identical. Identical values can stand only once.

Experiments:
J774 cell line = test: Cytotoxicity against host cells (MTT assay); type: cell-based; settings: for Effect on J774 cell line viability / cytotoxicity to the host cells (in words): 48 h of incubation, at 100 µM; for Maximum Cytotoxicity: J774 macrophages, MTT assay, 48 h, NT = no significant lethal activity to cell until 100 M (printed) compared to DMSO group
Procedure: (§1) The adherent-phenotype macrophage line was cultured in Dulbecco’s Modified Eagle’s medium (DMEM, Sigma, Dublin, Ireland) supplemented with 10% FBS at 37 °C, 95% humidity and 5% CO2.
(§2) To evaluate the cytotoxicity activity against the J774 cell line, the host cells were plated in 96-well vessels at 2 × 10^5 cells per well in a complete culture medium with 10% FBS at 37 °C. After 1 h, the wells were washed with HBSS to remove non-adherent cells, leaving approximately 1 × 10^5 adherent macrophages. The cells were cultured in DMEM complete medium supplemented with 10% FBS. The compounds and pentamidine were added at serial concentrations (0.1–100 µM). The cells were also cultured in media free from compounds, a vehicle (basal growth control) or media with DMSO 0.1% (vehicle control). The positive control (dead cells) was obtained through cellular lyses with 1% of Triton X-100 in DMEM complete medium. After 48 h, the cytotoxicity was evaluated using the MTT assay. The data obtained from the experiments were expressed as the mean ± S.E.M., and the significant differences between the treated and vehicle groups were evaluated using ANOVA and Dunnett post-hoc tests.

[1] = Cytotoxicity against host cells (MTT assay); type: cell-based; settings: mouse, J774 macrophage cell line; J774 macrophages, MTT assay, 48 h, maximal concentration 100 μM; read-out: LC50
Procedure: as §1, §2

[2] = test system: L. amazonensis promastigotes; test: In vitro activity against L. amazonensis promastigotes; type: cell-based; settings: Leishmania amazonensis, 48 h; for IC50: maximal concentration 100 μM; for Emax: up to 100 μM, read-out: Maximum Effect
Procedure: (§3) L. braziliensis promastigotes (MHOM/BR/87/BA788) were obtained from Dra. Valéria de Matos Borges at the Gonçalo Moniz Research Center, Fiocruz_BA. L. amazonensis promastigotes (MHOM/BR/77/LTB0016) were obtained from Dr. Eduardo Caio Torres dos Santos at the Oswaldo Cruz Institute-Fiocruz_RJ. The parasites were maintained in vitro in Schneider’s medium supplemented with 10% FBS and 2% human urine at 27 °C in BOD incubator.
(§4) The parasites were maintained in vitro in Schneider’s medium supplemented with 10% FBS and 2% human urine. Novel bis-lawsone analog stock solutions and pentamidine (reference leishmanicidal drug) were prepared in DMSO immediately before use. The cytotoxicities of the bis-lawsone analogs and pentamidine against the promastigotes were determined. Stationary phase L. braziliensis and L. amazonensis promastigotes were plated in 96-well vessels (Nunc, Roskilde, Denmark) at 1 × 10^5 cells per well in Schneider’s medium supplemented with 10% FBS and 2% human urine. Each compound solution was added at increasing concentrations (0.1–100 mg to the extract and its phases or 0.1–100 µΜ to the isolates and pentamidine). The cells were also cultured in a medium free of compounds, a vehicle (basal growth control) or with DMSO 0.1% (vehicle control). After 48 h, the extracellular load for L. braziliensis and L. amazonensis promastigotes was estimated by counting the promastigotes in Schneider’s medium using a CELM automatic cell counter (model CC530, Barueri, Brazil). The data obtained from experiments were expressed as the mean ± S.E.M., and the significant differences between the treated and vehicle groups were evaluated using ANOVA and Dunnett post-hoc tests.

[3] = test system: L. braziliensis promastigotes; test: In vitro activity against L. braziliensis promastigotes; type: cell-based, Leishmania braziliensis; settings: for IC50 / Emax: Leishmania braziliensis, L. braziliensis promastigotes, 48 h; for IC50: maximal concentration 100 μM; for Emax: NT = no significant inhibitory activity for the parasite to 100 M (printed) compared to DMSO group, read-out: Maximum Effect; for Selectivity: IC50 to L. braziliensis lower than IC50 to L. amazonensis: ratio of promastigote IC50 values
Procedure: as §3, §4

L. amazonensis [4] = test: In vivo activity against Leishmania amazonensis in infected BALB/c mice; settings: 30 μmol/kg/day × 28 days, i.p.; for Parasite load in the draining lymph node / Parasite load in the infected ear: limiting-dilution assay
Excerpt: (§5) This study was approved (protocol no. 2013.02) by the Ethics Committee for Animal Experimentation of the Federal University of Alagoas (Brazil). All animals received humane care in compliance with the “Principles of laboratory animal care” formulated by the National Society for Medical Research and the “Guide for the care and use of laboratory animals” prepared by the National Academy of Sciences (Washington, DC, USA). Next, 1 × 10^5 stationary promastigotes (5 days of culture in Schneider’s medium) of L. amazonensis (MHOM/BR/77/LTB0016) were subcutaneously inoculated into the right ear dermis of 6-week-old female BALB/c mice weighing ca. 20 g. and were later intraperitoneally treated with 3a or glucantime at 30 μmol/kg × 28 days. The lesion size was measured using a paquimeter. The parasite loads of infected ears and draining lymph nodes were determined using a quantitative limiting-dilution assay. Complex toxicity was also evaluated through biochemistry dosages in plasma. The experimental data were expressed as the mean ± S.E.M., and the significant differences between the treated and vehicle groups were evaluated using ANOVA and Dunnett post-hoc tests.

[5] = In vivo toxicity (spleen weight, plasma biochemistry) in infected BALB/c mice; settings: BALB/c mice infected with L. amazonensis, 30 μmol/kg/day × 28 days, i.p.
Excerpt: as §5

L. amazonensis [6] = test system: L. amazonensis; set-up: method as in PMID 15654435; settings: promastigotes; cited from earlier work
L. braziliensis = test system: L. braziliensis; set-up: method as in PMID 15654435; settings: promastigotes; cited from earlier work
Leishmania = test system: Leishmania; set-up: method as in PMID 15654435; settings: cited from earlier work
promastigote forms = settings: stated as reason for choice of reference drug; no reference given; cited from earlier work

Row | Compound | CC50 at 48 h [1] [µM] | IC50 [2] [µM] | Emax [2] [%] | IC50 [3] [µM] | Emax [3] [%] | further results
1 | O=C1C(O)=C(C(C2=C(O)C(=O)c3ccccc3C2=O)c2ccc(F)cc2)C(=O)c2ccccc21 [Compound 3h, 3,3'-(4-Fluorophenylmethylene)-bis[2-hydroxy-1,4-naphthalenedione]] | > 100 | 0.6 ± 0.2 | 51 ± 5.5 | 0.8 ± 0.03 | 88.7 ± 0.3 | Effect on J774 cell line viability / cytotoxicity to the host cells (in words) (J774 cell line): without cytotoxicity
2 | CCCCCC(C1=C(O)C(=O)c2ccccc2C1=O)C1=C(O)C(=O)c2ccccc2C1=O [Compound 3b, 3,3'-(Hexylidene)-bis[2-hydroxy-1,4-naphthalenedione]] | > 100 | 5.2 ± 0.1 | 57.2 ± 3.8 | 5.2 ± 0.1 | 93 ± 0.1 | Effect on J774 cell line viability / cytotoxicity to the host cells (in words) (J774 cell line): without cytotoxicity
3 | O=C1C(O)=C(C(C2=C(O)C(=O)c3ccccc3C2=O)c2ccc(O)cc2)C(=O)c2ccccc21 [Compound 3f, 3,3'-(4-Hydroxyphenylmethylene)-bis[2-hydroxy-1,4-naphthalenedione]] | > 100 | 68.7 ± 15.1 | 55.4 ± 4.7 | 38.7 ± 2 | 91.7 ± 0.3 | 
4 | CCC(CC)C(C1=C(O)C(=O)c2ccccc2C1=O)C1=C(O)C(=O)c2ccccc2C1=O [Compound 3c, 3,3'-(2-Ethylbutylidene)-bis[2-hydroxy-1,4-naphthalenedione]] | 67.4 ± 2.1 | 0.4 ± 0.1 | 75.3 ± 1.3 | 34.7 ± 4.3 | 90.4 ± 0.7 | Maximum Cytotoxicity (J774 cell line): 71.7% ± 3.8% and 71.7 ± 3.8 %
5 | O=C1C(O)=C(CC2=C(O)C(=O)c3ccccc3C2=O)C(=O)c2ccccc21 [Compound 3a, 3,3'-(Methylene)-bis[2-hydroxy-1,4-naphthalenedione]] | > 100 | 71 ± 1.1 | 72.8 ± 1 | 0.9 ± 0.08 | 88.4 ± 0.9 | Parasite load in the draining lymph node (L. amazonensis [4]): did not decrease; Parasite load in the infected ear (L. amazonensis [4]): did not decrease; Lesion size for the infected ear (L. amazonensis [4]; third week after the treatment began): decreased; Effect on J774 cell line viability / cytotoxicity to the host cells (in words) (J774 cell line): without cytotoxicity; Selectivity: IC50 to L. braziliensis lower than IC50 to L. amazonensis [3]: 10 times; Alanine aminotransferase (ALT) in plasma [5]: nor altered; Aspartate aminotransferase (AST) in plasma [5]: nor altered; Spleen weight ([5]; last day of treatment): neither induced a change
6 | CC(=O)OC1=C(C=CC(C)C)C(=O)c2ccccc2C1=O [isolapachol acetate] |  |  |  |  |  | IC50 (L. amazonensis [6]): 1.6 µg/mL; IC50 (L. braziliensis): 3.4 µg/mL
7 | isolapachol |  |  |  |  |  | Antileishmanial activity (in words) (Leishmania): significant activity
8 | O=C1C(O)=C(C(C2=C(O)C(=O)c3ccccc3C2=O)c2ccccc2)C(=O)c2ccccc21 [Compound 3d, 3,3'-(Phenylmethylene)-bis[2-hydroxy-1,4-naphthalenedione]] | > 100 | 0.3 ± 0.1 | 85 ± 3.8 | > 100 |  | Activity against promastigote forms of L. braziliensis (in words) ([3]; until 100 µM): did not present activity
9 | CC(C)CCC1=C(O)C(=O)c2ccccc2C1=O [dihydrolapachol] |  |  |  |  |  | Antileishmanial activity (in words) (Leishmania): significant activity
10 | CC(C)=CCC1=C(O)C(=O)c2ccccc2C1=O [Lapachol] |  |  |  |  |  | Antileishmanial activity (in words) (Leishmania): significant activity
11 | O=C1C(O)=C(C(C2=C(O)C(=O)c3ccccc3C2=O)c2ccc([N+](=O)[O-])cc2)C(=O)c2ccccc21 [Compound 3g, 3,3'-(4-Nitrophenylmethylene)-bis[2-hydroxy-1,4-naphthalenedione]] | > 100 | 7.7 ± 1.2 | 55.6 ± 3.2 | 2.8 ± 0.1 | 91.7 ± 1.3 | 
12 | N=C(N)c1ccc(OCCCCCOc2ccc(C(=N)N)cc2)cc1 [Pentamidine, reference compound] | 73 ± 6 | 2.3 ± 0.8 | 85.4 ± 0.4 | 0.8 ± 0.06 | 91 ± 0.1 | Maximum Cytotoxicity (J774 cell line): 78.0 ± 3.8 %; Maximum Cytotoxicity (J774 cell line; listed as pentamidine): 78.0% ± 3.8%
13 | meglumine antimoniate [glucantime, reference compound] |  |  |  |  |  | Parasite load in the draining lymph node (L. amazonensis [4]): did not decrease; Parasite load in the infected ear (L. amazonensis [4]): did not decrease; Activity against promastigote forms (in words) (promastigote forms): not active
14 | COc1ccc(C(C2=C(O)C(=O)c3ccccc3C2=O)C2=C(O)C(=O)c3ccccc3C2=O)cc1 [Compound 3e, 3,3'-(4-Methoxyphenylmethylene)-bis[2-hydroxy-1,4-naphthalenedione]] | > 100 | > 100 | 44.6 ± 2.4 | 0.9 ± 0.04 | 61.6 ± 7.5 | Effect on J774 cell line viability / cytotoxicity to the host cells (in words) (J774 cell line): without cytotoxicity; Selectivity: IC50 to L. braziliensis lower than IC50 to L. amazonensis [3]: 10 times
